“Also recorded” adds a separate entry of the source.
Experiments:
[1] = test system: ovariectomized rats; assay: Serum LH concentration in ovariectomized rats, percutaneous administration; type: in vivo, rat; conditions: OVX rats
Protocol: (§1) Intact animals are used as additional controls. The compounds were dissolved in 50% ethanol-50% propylene glycol and were administered in 0.1 ml on the dorsal skin area (2 cm×2 cm).
(§2) Male and female Sprague-Dawley rats [Crl: CD (SD)Br] weighing 225-250 g and 175-200 g, respectively, were obtained from Charles River Canada Inc. (St-Constant, Québec) and housed 2 per cage under a regimen of 14 h of light/da, (lights on at 07:15 h). Animals received Purina rat chow and water ad libitum. The animal studies were conducted to the “Guideline for Care and use of Experimental Animals”.
(§3) The animals were randomly divided into the indicated groups (8 and 10 rats per group for subcutaneous and topical administration, respectively). The animals of the appropriate groups were bilaterally ovariectomized (OVX) or orchiectomized (ORCH) under ether anesthesia while other rats were used as intact controls.
(§4) Seven days after starting treatment or approximately 12 h after last administration of the steroid, the animals were killed by decapitation. Blood samples were collected individually and serum was frozen at −20° C. until assayed. Uteri, ovaries, ventral prostates, dorsal prostates and seminal vesicles were immediately removed, freed from connective and adipose tissue, weighed, frozen in liquid nitrogen, and stored at −80° C. until assayed. Three rats from the indicated treatment groups were perfused with paraformaldehyde for in situ hybridization.
Serum LH was measured by double-antibody radioimmunoassay using rat hormones (LH-I-6 for iodination; LH-RP-2 as standard), and the rabbit antisera anti-r-LH-S-8, generously supplied by the National Pituitary Program, Baltimore, USA.
(§5) Radioimmunoassay data were analyzed using a program based on model II of Rodbard and Lewald (Rodbard, 1974). Plasma steroid levels are shown as the means±SEM of duplicate determinations of individual samples. In situ hybridization data were obtained as follows: for each prostatic tissue section, 20 randomly selected areas measuring 0.25 mm^2 (excluding acinar lumen) were analyzed using an Image Research Analysis System (Amersham, Arlington Heights, Ill.) and the mean optical density value for each section was calculated. Data are shown as the means±SEM of 20 readings from 6-8 prostatic sections originating from ventral 3 prostates. Statistical significance was measured according to the multiple range test of Duncan-Kramer (Kramer, 1956).

[2] = test system: ovariectomized rats; assay: Uterine weight in ovariectomized rats, subcutaneous administration twice daily for 7 days; type: in vivo, rat; conditions: for dose giving half-maximal stimulation of uterine weight: OVX rats
Protocol: (§6) Intact animals are used as additional controls.
as §2, §3, §4

[3] = test system: ovariectomized rats; assay: Uterine weight in ovariectomized rats, percutaneous administration twice daily for 7 days; type: in vivo, rat; conditions: for effect on uterine weight: percutaneous; for maximal reversal of the inhibitory effect of ovariectomy on uterine weight: 100 mg percutaneous twice daily, 7 days
Protocol: as §1, §2, §3, §4

[4] = test system: orchiectomized rats; assay: Prostate and seminal vesicle weight in orchiectomized rats, subcutaneous administration; type: in vivo, rat; conditions: ORCH rats; for ED50 of maximal effect on prostate weight: half of each compound's own maximal effect
Protocol: as §6, §6, §2, §3, §4

[5] = Serum steroid concentrations (DHEA, 5-DIOL, 4-dione, testosterone, DHT) in ovariectomized rats, percutaneous administration; conditions: for concentration at 12 h: female, Sprague-Dawley, rat, in vivo; for serum levels of 5-DIOL, 5-DIOL versus DHEA: higher doses
Protocol: as §1, §1, §1
Intact animals are used as additional controls. The compounds were dissolved in 50% ethanol-50% propylene glycol and were administered in 0.1 ml on the dorsal skin in area (2 cm×2 cm).
as §1, §2, §3, §4
Steroid extraction, Ethanol (5 ml) was added to 1 ml serum and centrifugation at 2000×g was preformed for 15 min. The resulting pellet was further extracted with 2 ml ethanol and, after a second centrifugation at 2000×g for 15 min, the two supernatants were combined. The suspension was recentrifuged as described above and the supernatant was decanted and combined with the previously obtained ethanol extracts. The organic solvent was then evaporated under nitrogen and the residue was dissolved in 1 ml water: methanol (95:5, v/v). The C-18 columns (Bound-Elut, Amersham, Bucks, U.K.) were conditioned by passing consecutively 10 ml methanol, 10 ml water and 10 ml methanol/water (5:95, v/v). The extracts solubilized in water:methanol (95:5, v/v) were then deposited on the C-18 columns. After washing the columns with 2 ml water:methanol (95:5, v/v) and 5 ml methanol:water (50:50, v/v), 5 ml methanol:water (85:15, v/v) were added to eluate the non-conjugated steroids.
Chromatography on Sephadex LH-20 columns (Pharmacia, Uppsala, Sweden) was performed as previously described (Bélanger et al., 1988). In brief, steroids were solubilized in 1 ml isooctane/toluene/methanol (90:5:5, v:v:v) and deposited on the LH-20 columns. Fractions were collected and, after evaporation of the organic solvent, the concentration of the various steroids was determined by radioimmunoassay as previously described (Bélanger et al., 1980; Bélanger et al., 1988; Bélanger et al., 1990)
Radioimmunoassay data were analyzed using a program based on model II of Rodbard and Lewald (Rodbard, 1974). Plasma steroid levels are shown as the means±SEM of duplicate determinations of individual samples.

[6] = test system: orchiectomized rats; assay: Ventral prostate and seminal vesicle weight in orchiectomized rats, percutaneous administration; type: in vivo, rat
Protocol: as §6, §6, §2, §3, §4

[7] = test system: mRNAs encoding the C1 and C3 components of prostatic binding protein; assay: PBP-C1 and PBP-C3 mRNA in the ventral prostate of orchiectomized rats, percutaneous administration; type: in vivo, rat; conditions: ORCH rats, depending on dosage
Protocol: as §6, §6, §2
The animals were randomly divided into the indicated groups (8 and 10 rats per group for subcutaneous and topical administration, respectively). […]
as §5, with “Plasma steroid levels are shown as the means±SEM of duplicate determinations of individual samples.” left out

[8] = test system: human mammary tumor ZR-75-1 cells; conditions: concentrations within range of plasma levels in adult women; cited from earlier work
[9] = test system: MCF-7 cells; conditions: cited from earlier work

SMILES	inhibition of serum LH below the value in intact control animals ([1]; 30 mg dose)	inhibition of serum LH below the value in intact control animals ([1]; 100 mg dose) [%]	dose giving half-maximal stimulation of uterine weight [2] [mg]	effect on uterine weight ([3]; 10 mg and 30 mg doses)	maximal reversal of the inhibitory effect of ovariectomy on uterine weight [3] [%]	effect on uterine weight ([3]; 1 and 3 mg doses)	ED50, dose giving half-maximal reversal of the effect of orchiectomy on prostate weight [4] [mg]	half-maximal reversal of the effect of orchiectomy on seminal vesicle weight (dose) [4] [mg]	ED50 of maximal effect on prostate weight [4] [mg]	serum levels of 5-DIOL, 5-DIOL versus DHEA ([5]; percutaneous, OVX rats)	further results
C[C@]12CC[C@H](O)CC1=CC[C@@H]1[C@@H]2CC[C@]2(C)C(=O)CC[C@@H]12 [DHEA, dehydroepiandrosterone]	approximately 35%	~70	~2.5	comparable stimulation	42	no significant effect	1	~2.5	2.5	no significant difference	inhibitory effect on serum LH ([1]; 10 mg dose): 61%; effect on uterine weight ([2]; 0.3 mg): no significant effect; concentration at 12 h ([5]; 3 mg): 1.74 ± 0.3 nM; concentration at 12 h ([5]; 30 mg): 12.9 ± 3.69 nM; concentration at 12 h ([5]; 100 mg): 39.2 ± 6.5 nM; reversal of the inhibitory effect of orchiectomy on ventral prostate weight ([6]; 10 mg dose, percutaneous): about 75%; androgenic activity of DHEA relative to 5-DIOL where equivalent estrogenic effects are provided ([6]; percutaneous administration): two to three times more androgenic activity; potency of DHEA relative to 5-DIOL in increasing seminal vesicle weight ([6]; percutaneous, ORCH rats): 1 fold; stimulation of PBP-C1 and PBP-C3 mRNA levels by DHEA relative to 5-DIOL [7]: two to five times the effect; also recorded: two to five times more potent
C[C@]12CC[C@H]3[C@@H](CC=C4C[C@@H](O)CC[C@@]43C)[C@@H]1CC[C@@H]2O [5-DIOL, androst-5-ene-3β,17β-diol]	approximately 35%	~70	0.5	comparable stimulation	52	no significant effect	1	~1.2	1.2	no significant difference	cell proliferation [8]: enhances cell proliferation; progesterone receptor levels [8]: enhances; serum LH ([1]; 10 mg dose): 0.86 ± 0.17 ng/mL; reversal of the effect of 1-week ovariectomy on uterine weight ([2]; 0.3 mg): 90%; estrogen-dependent synthesis of the 52 kDa glycoprotein [9]: increases; serum DHEA level ([5]; 3, 10, 30 and 100 mg dosages, percutaneous, OVX rats): relatively constant but low level; levels of serum DHT ([5]; across the dosage range, percutaneous, OVX rats): substantially constant and relatively low; serum levels of 5-DIOL compared with the other steroid ([5]; lower doses, 1 and 3 mg, percutaneous, OVX rats): higher levels; reversal of the effect of castration on ventral prostate weight ([6]; 15 mg dose, percutaneous): 50%

Source: patent publication US6995150B2, “Pharmaceutical compositions and uses for androst-5-ene-3β, 17β-diol” (Endorecherche, Inc., priority 1998, dated 2006)
